Read-outs that look alike come from different tables or passages of the source.
Tested on: Anopheles stephensi
Test: Anopheles stephensi treated well plate contact test: knockdown and mortality
Assay type: in vivo
Conditions: for mortality at 0.2 ppm / pest or weed control at 0.2 ppm / mortality at 2 ppm / pest or weed control at 2 ppm / mortality at 20 ppm / pest or weed control at 20 ppm / mortality at 200 ppm / pest or weed control at 200 ppm / mortality at 0.02 ppm / pest or weed control at 0.02 ppm: Anopheles stephensi; for pest or weed control at 0.2 ppm / pest or weed control at 2 ppm / pest or weed control at 20 ppm / pest or weed control at 200 ppm / Knock Down, with TFNA-AM / pest or weed control at 0.02 ppm / Knock Down, without TFNA-AM: knockdown after 1 hour; for pest or weed control at 0.2 ppm / pest or weed control at 2 ppm / pest or weed control at 20 ppm / pest or weed control at 200 ppm / pest or weed control at 0.02 ppm: read-out: Knock Down, without TFNA-AM
Description: Examples Anopheles stephensi (Indian Malaria Mosquito)
The individual wells of twelve (12) well tissue culture plates were treated with 200 μl of an ethanol solution containing a test compound of Table 1 or Table 2 at a defined concentration and repeated with also 200 μl of an ethanol solution containing in addition 2 ppm TFNA-AM. Once the deposits were dry, five non-blood fed adult female Anopheles stephensi (between two to five day old) were added to each well, and sustained with a 10% sucrose solution in a cotton wool plug. Assessment of the knockdown after 1 hour, and mortality after 24 and 48 hours was carried out.
In case of multiple tests, the mean value is reported.

[1] = test compound 0.2 ppm, without TFNA-AM, after 24 hours, read-out: mortality % 24, without TFNA-AM
[2] = test compound 0.2 ppm, without TFNA-AM, after 48 hours, read-out: mortality % 48, without TFNA-AM
[3] = test compound 0.2 ppm, without TFNA-AM
[4] = test compound 2 ppm, without TFNA-AM, after 24 hours, read-out: mortality % 24, without TFNA-AM
[5] = test compound 2 ppm, without TFNA-AM, after 48 hours, read-out: mortality % 48, without TFNA-AM
[6] = test compound 2 ppm, without TFNA-AM
[7] = test compound 20 ppm, without TFNA-AM, after 24 hours, read-out: mortality % 24, without TFNA-AM
[8] = test compound 20 ppm, without TFNA-AM, after 48 hours, read-out: mortality % 48, without TFNA-AM
[9] = test compound 20 ppm, without TFNA-AM
[10] = test compound 200 ppm, without TFNA-AM, after 24 hours, read-out: mortality % 24, without TFNA-AM
[11] = test compound 200 ppm, without TFNA-AM, after 48 hours, read-out: mortality % 48, without TFNA-AM
[12] = test compound 200 ppm, without TFNA-AM, adult females
[13] = test compound 0.2 ppm plus 2 ppm TFNA-AM, after 24 hours
[14] = test compound 0.2 ppm plus 2 ppm TFNA-AM, after 48 hours
[15] = test compound 0.2 ppm plus 2 ppm TFNA-AM
[16] = test compound 2 ppm plus 2 ppm TFNA-AM, after 24 hours
[17] = test compound 2 ppm plus 2 ppm TFNA-AM, after 48 hours
[18] = test compound 2 ppm plus 2 ppm TFNA-AM
[19] = test compound 20 ppm plus 2 ppm TFNA-AM, after 24 hours
[20] = test compound 20 ppm plus 2 ppm TFNA-AM, after 48 hours
[21] = test compound 20 ppm plus 2 ppm TFNA-AM
[22] = test compound 200 ppm plus 2 ppm TFNA-AM, after 24 hours
[23] = test compound 200 ppm plus 2 ppm TFNA-AM, after 48 hours
[24] = test compound 200 ppm plus 2 ppm TFNA-AM
[25] = 24 h, read-out: mortality % 24, without TFNA-AM
[26] = 48 h, read-out: mortality % 48, without TFNA-AM
[27] = test compound 0.02 ppm, without TFNA-AM
[28] = test compound 0.02 ppm plus 2 ppm TFNA-AM, after 24 hours
[29] = test compound 0.02 ppm plus 2 ppm TFNA-AM, after 48 hours
[30] = test compound 0.02 ppm plus 2 ppm TFNA-AM

| Compound | mortality at 0.2 ppm [1] [%] | mortality at 0.2 ppm [2] [%] | pest or weed control at 0.2 ppm [3] [%] | mortality at 2 ppm [4] [%] | mortality at 2 ppm [5] [%] | pest or weed control at 2 ppm [6] [%] | mortality at 20 ppm [7] [%] | mortality at 20 ppm [8] [%] | pest or weed control at 20 ppm [9] [%] | mortality % 24, with TFNA-AM [13] [%] | mortality % 48, with TFNA-AM [14] [%] | Knock Down, with TFNA-AM [15] [%] | mortality % 24, with TFNA-AM [16] [%] | mortality % 48, with TFNA-AM [17] [%] | Knock Down, with TFNA-AM [18] [%] | mortality % 24, with TFNA-AM [19] [%] | mortality % 48, with TFNA-AM [20] [%] | Knock Down, with TFNA-AM [21] [%] | mortality % 24, with TFNA-AM [22] [%] | mortality % 48, with TFNA-AM [23] [%] | other results |
| --- | --- | --- | --- | --- | --- | --- | --- | --- | --- | --- | --- | --- | --- | --- | --- | --- | --- | --- | --- | --- | --- |
| O=[N+]([O-])c1cc(C(F)(F)F)c(Cl)c([N+](=O)[O-])c1Nc1ncc(C(F)(F)F)cc1Cl [Fluazinam] | 0 | 0 | 0 | 0 | 0 | 0 | 70 | 80 | 20 | 30 | 20 | 100 | 30 | 20 | 100 | 100 | 100 | 100 | 100 | 100 | mortality at 200 ppm [10]: 90%; mortality at 200 ppm [11]: 90%; pest or weed control at 200 ppm [12]: 20%; Knock Down, with TFNA-AM [24]: 100% |
| Cc1ccc(/N=C/N(C)/C=N/c2ccc(C)cc2C)c(C)c1 [Amitraz] | 0 | 0 | 0 | 0 | 0 | 0 | 0 | 0 | 0 | 20 | 0 | 100 | 20 | 0 | 100 | 20 | 40 | 100 | 100 | 100 | mortality at 200 ppm [10]: 0%; mortality at 200 ppm [11]: 0%; pest or weed control at 200 ppm [12]: 0%; Knock Down, with TFNA-AM [24]: 100% |
| CCOc1cc(C(C)(C)C)ccc1C1COC(c2c(F)cccc2F)=N1 (stereo not drawn) [Etoxazole] | 0 | 0 | 0 | 0 | 0 | 0 | 0 | 0 | 0 | 40 | 40 | 100 | 60 | 40 | 100 | 60 | 60 | 100 | 80 | 80 | mortality at 200 ppm [10]: 0%; mortality at 200 ppm [11]: 0%; pest or weed control at 200 ppm [12]: 0%; Knock Down, with TFNA-AM [24]: 100% |
| COP(=S)(OC)Oc1ccc([N+](=O)[O-])c(C)c1 [Fenitrothion] |  |  | 0 |  |  | 0 |  |  | 0 | 80 | 100 | 100 | 100 | 100 | 100 | 100 | 100 | 100 |  |  | mortality at 0.02 ppm [25]: 0%; mortality at 0.2 ppm [25]: 20%; mortality at 2 ppm [25]: 100%; mortality at 20 ppm [25]: 100%; mortality at 0.02 ppm [26]: 0%; mortality at 0.2 ppm [26]: 100%; mortality at 2 ppm [26]: 100%; mortality at 20 ppm [26]: 100%; pest or weed control at 0.02 ppm [27]: 0%; mortality % 24, with TFNA-AM [28]: 40%; mortality % 48, with TFNA-AM [29]: 40%; Knock Down, with TFNA-AM [30]: 100% |
| CC(C)c1cc(Oc2ccccc2)cc(C(C)C)c1NC(=S)NC(C)(C)C [Diafenthiuron] | 0 | 20 | 60 | 0 | 20 | 100 | 0 | 0 | 100 | 60 | 0 | 100 | 100 | 60 | 100 | 100 | 80 | 100 | 100 | 100 | mortality at 200 ppm [10]: 100%; mortality at 200 ppm [11]: 100%; pest or weed control at 200 ppm [12]: 100%; Knock Down, with TFNA-AM [24]: 100% |
| CON=C(C(=O)OC)c1ccccc1CON=C(C)c1cccc(C(F)(F)F)c1 [Trifloxystrobin] | 0 | 0 | 0 | 0 | 0 | 50 | 0 | 0 | 70 | 0 | 0 | 100 | 60 | 70 | 100 | 100 | 100 | 100 | 100 | 100 | mortality at 200 ppm [10]: 0%; mortality at 200 ppm [11]: 0%; pest or weed control at 200 ppm [12]: 80%; Knock Down, with TFNA-AM [24]: 100% |
| Spinosad |  |  |  |  |  |  |  |  |  | 80 | 100 | 100 | 100 | 100 | 100 | 100 | 80 | 100 | 100 | 100 | mortality % 24, without TFNA-AM (test compound 0.2 ppm, without TFNA-AM, after 24 hours): 0%; mortality % 48, without TFNA-AM (test compound 0.2 ppm, without TFNA-AM, after 48 hours): 0%; Knock Down, without TFNA-AM [3]: 40%; mortality % 24, without TFNA-AM (test compound 2 ppm, without TFNA-AM, after 24 hours): 0%; mortality % 48, without TFNA-AM (test compound 2 ppm, without TFNA-AM, after 48 hours): 0%; Knock Down, without TFNA-AM [6]: 40%; mortality % 24, without TFNA-AM (test compound 20 ppm, without TFNA-AM, after 24 hours): 0%; mortality % 48, without TFNA-AM (test compound 20 ppm, without TFNA-AM, after 48 hours): 0%; Knock Down, without TFNA-AM [9]: 40%; Knock Down, with TFNA-AM [24]: 100%; mortality % 24, without TFNA-AM (test compound 200 ppm, without TFNA-AM, after 24 hours): 40%; mortality % 48, without TFNA-AM (test compound 200 ppm, without TFNA-AM, after 48 hours): 40%; Knock Down, without TFNA-AM [12]: 60% |
| CCOc1ccc(C(C)(C)COCc2cccc(Oc3ccccc3)c2)cc1 [Etofenprox] | 20 | 20 | 0 | 80 | 80 | 0 | 100 | 100 | 60 | 100 | 100 | 100 | 100 | 100 | 100 | 100 | 100 | 100 |  |  | mortality at 0.02 ppm (test compound 0.02 ppm, without TFNA-AM, after 24 hours, read-out: mortality % 24, without TFNA-AM): 0%; mortality at 0.02 ppm (test compound 0.02 ppm, without TFNA-AM, after 48 hours, read-out: mortality % 48, without TFNA-AM): 0%; pest or weed control at 0.02 ppm [27]: 0%; mortality % 24, with TFNA-AM [28]: 60%; mortality % 48, with TFNA-AM [29]: 60%; Knock Down, with TFNA-AM [30]: 100% |

Source: patent US20260206755A1, “COMPOUNDS AND COMPOSITIONS HAVING KNOCK-DOWN OR BLOOD FEED INHIBITION ACTIVITY AGAINST INSECT PESTS” (priority 2017, published 2026)
